Experimental data: BindingDB's records for doi:10.1021/jm00124a027 (Syntex Research, 1989)

experiment: Inhibition of thromboxane A2 synthetase as reduced ADP-induced aggregation of human platelet rich plasma in the presence of pig aortal microsomes

Structure (SMILES)	IC50
C/C(=C\c1ccc(Cn2ccnc2)[nH]1)C(=O)O	9100 nM
Cn1c(/C=C/C(=O)O)ccc1Cn1ccnc1	3800 nM
Cn1cc(/C=C/C(=O)O)cc1Cn1ccnc1	4600 nM
C/C(=C\c1cc(Cn2ccnc2)n(C)c1)C(=O)O	1600 nM
COC(=O)[C@@H]1CC1c1ccc(Cn2ccnc2)n1C (some centres not stated)	9100 nM

Continued, values first:

IC50	Structure (SMILES)
24000 nM	C/C(=C/c1ccc(Cc2cccnc2)n1-c1ccccc1)C(=O)O
44 nM	C/C(=C/c1cc(Cc2cccnc2)n(C(C)(C)C)c1)C(=O)O
50 nM	C/C(=C/c1ccc(Cc2cccnc2)n1C)C(=O)O
78000 nM	C/C(=C/c1ccc(Cc2cccnc2)n1CC(C)(C)C)C(=O)O
1000 nM	C/C(=C/c1ccc(Cn2ccnc2)n1C)C(=O)O
42 nM	CCn1c(/C=C(/C)C(=O)O)ccc1Cc1cccnc1
2100 nM	C/C(=C/c1ccc(Cc2cccnc2)n1C(C)C)C(=O)O
